Experimental data published in patent US20110144125A1, “Anti-Arrhythmia Agents, Methods of Their Use, Methods of Their Identification and Kits Therefore” (THE UAB RESEARCH FOUNDATION, priority 2008, published 2011).

Legend:
[1] = test system: rat left atrial appendage; assay: 2-APB-induced spontaneous mechanical activity (SMA/SMEs) in isolated superfused rat left atria / left atrial appendage; conditions: 3 Hz paced; data not shown
Description: Left atria were isolated from male Sprague-Dawley rats (325 to 400 g) under IP pentobarbital anesthesia (0.1 g/kg). Isolated left atria were superfused at 30° C. in Krebs-Henseleit (KH) buffer of the following mM composition: NaCl, 118; NaHCO3, 27; KCl, 4.8; MgSO4, 1.2; KH2PO4, 1.0; CaCl2, 1.8; and glucose, 11.1. Nearly isometric left atrial forces of contraction were measured as described.
Isolated superfused left atria were paced at 3 Hz. 2-APB was added to atrial superfusates from 0.015 or 0.15M DMSO stock solutions to achieve concentrations of 0, 2, 7.5, 15, or 22 μM (n=5 to 10 atria per concentration). Changes in atrial mechanical force were recorded during a subsequent 15 min superfusion.
Two groups of 5 to 6, 3 Hz paced atria were superfused in KH and exposed to 0 or 15 μM 2-APB for 10 min. The pacing stimulus was interrupted for 5 min and the number of spontaneous mechanical events (SMEs), defined as increases in mechanical force occurring in the absence of pacing, were measured as was the postrest potentiation response (PRP).
To determine whether diastolic interval affected the interaction between 2-APB and left atria, atrial pacing was decreased to 0.1 Hz, and 0, 7.5, or 22 μM 2-APB was added to the superfusate (n=6-8 per group). Superfusions continued for 15 min, and changes in atrial mechanical function were observed.
To establish whether SMA was reversible, atria (n=7) were paced at 0.1 Hz, exposed to 15 μM 2-APB for 10 min, and washed with KH. The effect of removing 2-APB on atrial mechanical function was recorded.
To test whether an anion transport inhibitor affected SMA, atria (n=7) were paced at 0.1 Hz in KH and exposed to 15 μM 2-APB. Following the appearance of SMA, they were titrated with 100 to 400 μM DIDS for 3 to 5 min at each concentration. Whether SMA occurred at the end of each titration period was recorded.
Left atria (n=10 per group) were paced at 0.1 Hz and treated with (i) 20 μM 2-APB for 10 min, (ii) with 30 nM isoproterenol for 5 min followed by 20 μM 2-APB for 10 min, and (iii) with 3 μM forskolin for 5 min followed by 20 μM 2-APB for 10 min.
The appendages then were titrated with increasing concentrations of 2-APB, and SMA was measured and recorded.
(§1) To determine the anti-arrhythmic activity of gossypol, isolated rat left atrial appendage and right ventricular muscle strips were used as model systems, as described above. Heart muscle was exposed to 20 μM 2-APB for 10 min to induce SMA, and rates of SMA were recorded as a percentage of initial SMA. The muscles then were titrated with up to 5 increasing concentrations of gossypol. Rates of SMA were recorded ˜10 min after the addition of concentration of the polyphenol.
To determine whether EGCG can prevent arrhythmia, rat left atrial appendages (n=9) were exposed to 20 μM 2-APB and rates of SMA were recorded. Groups of muscles (n=6 per) were pre-treated with 30 μM EGCG for 10 min following which they were exposed to 2-APB. Rates of SMA were recorded 10 min later.
as §1, with “whether EGCG is effective to reverse arrhythmia,” for “the anti-arrhythmic activity of gossypol,”, “Rat left atrial appendages were” for “Heart muscle was”, “left atrial appendages” for “muscles”, “the following polyphenols: EGCG, gossypol, resveratrol, and quercetin.” for “gossypol.”
To determine whether EGC can prevent arrhythmia, left atrial appendages (n=9) were exposed to 20 μM 2-APB and rates of SMA were recorded. Groups of appendages (n=6 per) were pre-treated with 30 μM EGC for 10 min following which they were exposed to 2-APB.

[2] = test system: right ventricular muscle strips and right or left ventricular papillary muscles; assay: Ventricular muscle model of SMA and STA; set-up: species or system rat; conditions: paced at 0.5 Hz, added to the superfusate in appropriate amounts
From the text: To further establish this model as a general test for arrhythmic and anti-arrhythmic agents, right ventricular muscle strips and right or left ventricular papillary muscles were isolated from anesthetized rats as cardiac muscle exemplars using methods known to persons skilled in the art. Additional exemplars could include ventricular or atrial conduction system cells and the SAN itself. These muscles were then superfused as described above and paced at 0.5 Hz.

[3] = test system: rat left atrial appendage; assay: ATXII-induced triggered activity and transition to automaticity in left atrial appendage
From the text: There are two types of afterdepolarizations; early afterdepolarizations (EADs) that occur early during repolarization and delayed afterdepolarizations (DADs) that occur in fully repolarized, resting myocytes (FIG. 4). Both EADs and DADs are defined as “triggered” activities as they require a preceding normal action potential to occur (FIG. 3B). One model to elicit EADs is to expose heart muscle or myocytes to Anemonia sulcata Toxin II (ATX II). This 47 amino acid peptide specifically enhances late sodium current and prolongs the action potential duration (FIG. 3D; middle panel). This leads to calcium loading of heart muscle followed by EADs during phase 2 or phase 3 of the action potential (FIGS. 3D & 5). These EADs, if of sufficient magnitude, produce ectopic mechanical events (FIG. 3B; ‡).
In embodiments of the assay an agent to induce arrhythmia will be introduced in the muscle. The arrhythmic agent may be chemical or physical. If the agent is chemical, it can be any chemical agent known by those skilled in the art to induce arrhythmia. The chemical agent will be introduced at a concentration sufficient to induce arrhythmia. If a certain type of arrhythmia is the subject of the assay (for example, triggered activity, tachycardia or any other type of arrhythmia), then the agent should be present at a concentration sufficient to produce the certain type of arrhythmia. One acceptable agent is anemone toxin II (“ATX II,”), the toxin of Anemone sulcata. ATX II is a sodium channel regulator.
It was tested whether the altered voltage-independent calcium homeostasis which 2-APB provokes is sufficient to initiate frank automaticity from triggered activity.

Compound	SMEs per min compared with 2-APB [1]	ventricular SMA [2]	ATXII concentration provoking automatic activity [3]	effect on action potential ([3]; 30 nM ATXII, paced at 1 Hz)	ATXII concentration inducing triggered activity / aftercontractions ([3]; paced left atrial appendages)
c1ccc(B(OB(c2ccccc2)c2ccccc2)c2ccccc2)cc1 [diphenyl boronic anhydride]	gave similar results	ventricular SMA was observed	–	–	–
ATXII: 47 amino acid peptide that enhances late sodium current and prolongs action potential duration	–	–	> 50 nM	prolongs action potential duration	< 50 nM
